Each structure is given as a SMILES string.

This is an account of results in publication PMC11117721, “A Fast-Binding, Functionally Reversible, COX-2 Radiotracer for CNS PET Imaging” (ACS Central Science, 2024).

The test concerns the target T1, COX-2 (Homo sapiens, UniProt P35354).
T1 sequence (P35354 18-604): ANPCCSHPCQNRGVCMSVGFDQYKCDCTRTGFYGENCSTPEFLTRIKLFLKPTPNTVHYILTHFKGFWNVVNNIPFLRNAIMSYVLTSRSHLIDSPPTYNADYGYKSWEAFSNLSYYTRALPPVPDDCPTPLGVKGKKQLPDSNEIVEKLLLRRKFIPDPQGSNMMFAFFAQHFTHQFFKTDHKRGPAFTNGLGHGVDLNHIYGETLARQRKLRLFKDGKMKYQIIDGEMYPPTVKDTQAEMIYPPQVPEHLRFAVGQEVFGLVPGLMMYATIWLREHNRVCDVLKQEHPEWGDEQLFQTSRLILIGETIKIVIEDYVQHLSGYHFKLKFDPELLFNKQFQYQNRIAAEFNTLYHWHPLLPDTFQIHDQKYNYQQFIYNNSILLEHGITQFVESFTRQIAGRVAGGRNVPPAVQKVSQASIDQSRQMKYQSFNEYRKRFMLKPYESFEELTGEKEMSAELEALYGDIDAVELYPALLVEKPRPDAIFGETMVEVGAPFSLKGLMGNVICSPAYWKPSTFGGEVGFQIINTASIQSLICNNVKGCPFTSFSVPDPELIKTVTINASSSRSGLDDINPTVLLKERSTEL
Description: PET neuroimaging of rats with localized human COX-2 overexpression (intrastriatal AAV2-GFP-hCOX2). The settings on record: COX-2 overexpression rat model. Also on record: FLAG; P2A linker remnant (GFP cassette co-expressed, separated by P2A); host or cells: rat striatal (caudate putamen) neurons transduced in vivo with AAV2, human synapsin promoter. In kind it is in vivo. As to the method: Localized overexpression of human COX-2 was induced in rats with intrastriatal injections of AAV2-GFP-hCOX2 to the right caudate and AAV2-GFP (control virus) to the left caudate (Figure 2A).[53] Animals also received a systemic injection of mannitol to enhance vector spread and transgene expression.[54] To directly compare the kinetic profiles of the three COX-2 tracers, intrasubject imaging was performed in several rats. Each animal was scanned under baseline and competition (+celecoxib) conditions, testing each tracer within each animal (initial data in Figure 2). […] The full experimental design was then replicated (Figure S8 in the Supporting Information). An additional experiment lacking the control virus to the left caudate was performed to facilitate assessment of tracer uptake that could be mediated by the instrastiatal injection through blood brain barrier disruption (Figure S9 in the Supporting Information).
In accordance with Massachusetts General Hospital Institutional Animal Care and Use Committee (IACUC) protocols, Sprague Dawley rats (300-500g, Charles River Laboratories), wildtype mice (Strain […]
Respiratory rates and body temperature were monitored through all imaging and surgical procedures, generally using a respiratory pad and rectal probe. […]
Figure 9). […] Using a sterile ruler coordinates ML 2.5 mm; AP 0.5 mm was measured and marked respective t o bregma. […]

With `[11CH3]S(=O)(=O)c1ccc(-c2cccc(NCc3ccoc3)n2)cc1` [[^11C]BRD1158], the “time of clear separation of right caudate PET signal from controls (left caudate and cerebellum)” value worked out at 10 min.
